Reference: US20240425523A1, “Compounds for the Degradation of EGFR Kinase” (Beigene Switzerland GMBH, priority 2023, published 2024)

Experiments:
Format in all cases: cell-based
[1] = target: T1, EGFR L858R (BaF3-L858R cells) (Homo sapiens, UniProt P00533, L858R); assay: Cell degradation of EGFR, HTRF assay, BaF3-L858R cells; details: 16 h treatment; for DC50: EGFR degradation; for Dmax: maximum percentage of degradation
T1 construct: host or cells: BaF3
Procedure, shortened: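 EGFR L858R levels measured by HTRF antibody pair in lysed BaF3-L858R cells after 16 h compound exposure (8-point 5-fold series from 10 uM final, 37° C). Degradation is relative to DMSO-only cells; DC50 fitted with Hill equation, Dmax taken as the largest percent loss.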

[2] = target: T2, EGFR-L858R/C797S (H1975-clone #8 cells) (Homo sapiens, UniProt P00533, C797S/L858R); assay: Cell degradation of EGFR, HTRF assay, H1975-clone#8 (L858R/C797S) cells; details: 16 h treatment; for DC50: EGFR degradation; for Dmax: maximum percentage of degradation
T2 construct: expressed in transfected cells; host or cells: H1975 (endogenous EGFR knocked out, clone #8)

[3] = target: T3, p-EGFR L858R (BaF3-L858R cells) (Homo sapiens, UniProt P00533, L858R); assay: Cell p-EGFR inhibition assay, HTRF, BaF3-L858R cells; details: 16 h treatment; for Imax (%): maximum percentage of pEGFR inhibition; for IC50: pEGFR inhibition
T3 construct: host or cells: BaF3
Procedure, shortened: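 BaF3-L858R cells treated 16 h at 37 °C, 5% CO2 with compound from 10 uM top, 5-fold dilutions, 8 doses, in 0.1% DMSO medium. Lysates read overnight by HTRF p-EGFR antibodies; IC50 fitted to four-parameter curve against DMSO high control.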

[4] = target: p-EGFR Del19/C797S (H1975-clone #23 cells) (Homo sapiens, UniProt P00533); assay: Cell p-EGFR inhibition assay, HTRF, H1975-clone#23 (DEL19/C797S) cells; details: 16 h treatment; for Imax (%): maximum percentage of pEGFR inhibition; for IC50: pEGFR inhibition
Procedure, shortened: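 Phospho-EGFR read by overnight HTRF on lysates, normalized to DMSO-treated high control; IC50, Hill slope and Imax fitted. Compounds were applied for 16 h (10 uM top, 5-fold steps, 8 doses) to an H1975 single clone carrying only exogenous Del19/C797S EGFR after sgRNA knockout of endogenous copies.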

SMILES | DC50 [1] [nM] | Dmax [1] [%] | DC50 [2] [nM] | Dmax [2] [%] | Imax (%) [3] [%] | IC50 [3] [nM] | Imax (%) [4] [%] | IC50 [4] [nM]
Cc1cc2cc(n1)-c1cnn(C)c1OC[C@H]1CCC(C1)CN1/C(=N/C2=O)Nc2ccc(N3CCN(C4CCN(c5ccc(OC6CCC(=O)NC6=O)cc5F)CC4)CC3)cc21 (some centres unmarked) [Example 88, 3-(4-(4-(4-((7^1R,7^3S,E)-1^1,2^6-dimethyl-3-oxo-5^2,5^3-dihydro-1^1H,5^1H-9-oxa-4-aza-5(2,1)-benzo[d]imidazola-2(2,4)-pyridina-1(4,5)-pyrazola-7(1,3)-cyclopentanacyclononaphane-5^6-yl)piperazin-1-yl)piperidin-1-yl)-3-fluorophenoxy)piperidine-2,6-dione] | 16.4 | 95.8 | 1.63 | 82.9 | 108.3 | 6.1 | 100.7 | 3
Cc1cc2cc(n1)-c1c(C)nn(C)c1OC[C@H]1CC[C@H](C1)CN1/C(=N/C2=O)Nc2ccc(N3CC4CCC3CN4C3CCN(c4cc(F)c([C@H]5CCC(=O)NC5=O)c(F)c4)CC3)cc21 [Example 193, (3R)-3-(2,6-difluoro-4-(4-(5-((7^1R,7^3S,E)-1^1,1^3,2^6-trimethyl-3-oxo-5^2,5^3-dihydro-1^1H,5^1H-9-oxa-4-aza-5(2,1)-benzo[d]imidazola-2(2,4)-pyridina-1(4,5)-pyrazola-7(1,3)-cyclopentanacyclononaphane-5^6-yl)-2,5-diazabicyclo[2.2.2]octan-2-yl)piperidin-1-yl)phenyl)piperidine-2,6-dione] | 7.4 | 76.2 | 0.76 | 70.8 | 101.04 | 2.35 | 100.43 | 2.74
Cc1cc2cc(n1)-c1c(C)nn(C)c1OC[C@H]1CC[C@H](C1)CN1/C(=N/C2=O)Nc2ccc(N3CCN(CC4CCN(c5cc(F)c([C@H]6CCC(=O)NC6=O)c(F)c5)CC4)CC3)cc21 [Example 182, (R)-3-(2,6-difluoro-4-(4-((4-((7^1R,7^3S,E)-1^1,1^3,2^6-trimethyl-3-oxo-5^2,5^3-dihydro-1^1H,5^1H-9-oxa-4-aza-5(2,1)-benzo[d]imidazola-2(2,4)-pyridina-1(4,5)-pyrazola-7(1,3)-cyclopentanacyclononaphane-5^6-yl)piperazin-1-yl)methyl)piperidin-1-yl)phenyl)piperidine-2,6-dione] | 21.8 | 89.2 | 1.39 | 79.8 | 100.38 | 2.21 | 99.73 | 2.38
Cc1cc2cc(n1)-c1c(C)nn(C)c1OC[C@H]1CC[C@H](C1)CN1/C(=N/C2=O)Nc2ccc(N3CCC(NC4CN(c5c(F)cc(OC6CCC(=O)NC6=O)cc5F)C4)CC3)cc21 (some centres unmarked) [Example 158, 3-(3,5-difluoro-4-(3-((1-((7^1R,7^3S,E)-1^1,1^3,2^6-trimethyl-3-oxo-5^2,5^3-dihydro-1^1H,5^1H-9-oxa-4-aza-5(2,1)-benzo[d]imidazola-2(2,4)-pyridina-1(4,5)-pyrazola-7(1,3)-cyclopentanacyclononaphane-5^6-yl)piperidin-4-yl)amino)azetidin-1-yl)phenoxy)piperidine-2,6-dione] | 3.75 | 79.8 | 4.39 | 77.3 | 95.45 | 72.6 | 100.46 | 3.65
Cc1cc2cc(n1)-c1cnn(C)c1OC[C@H]1CC[C@H](C1)CN1/C(=N/C2=O)Nc2ccc(N3CCN(C4CCN(c5ccc([C@H]6CCC(=O)NC6=O)nc5C)CC4)[C@H](C)C3)cc21 [Example 162, 3-(5-(4-((R)-4-((7^1R,7^3S,E)-1^1,2^6-dimethyl-3-oxo-5^2,5^3-dihydro-1^1H,5^1H-9-oxa-4-aza-5(2,1)-benzo[d]imidazola-2(2,4)-pyridina-1(4,5)-pyrazola-7(1,3)-cyclopentanacyclononaphane-5^6-yl)-2-methylpiperazin-1-yl)piperidin-1-yl)-6-methylpyridin-2-yl)piperidine-2,6-dione] | 4.86 | 88.6 | 3.14 | 85.4 | 93.37 | 3.68 | 95.16 | 0.21
COC[C@H]1CN(c2cc3c(cc2F)N/C2=N\C(=O)c4cc(C)nc(c4)-c4c(C)nn(C)c4OC[C@H]4CC[C@H](C4)CN23)CCN1C1CCN(c2cc(F)c([C@H]3CCC(=O)NC3=O)c(F)c2)CC1 [Example 165, (R)-3-(2,6-difluoro-4-(4-((R)-4-((7^1R,7^3S,E)-5^5-fluoro-1^1,1^3,2^6-trimethyl-3-oxo-5^2,5^3-dihydro-1^1H,5^1H-9-oxa-4-aza-5(2,1)-benzo[d]imidazola-2(2,4)-pyridina-1(4,5)-pyrazola-7(1,3)-cyclopentanacyclononaphane-5^6-yl)-2-(methoxymethyl)piperazin-1-yl)piperidin-1-yl)phenyl)piperidine-2,6-dione] | 3.32 | 91.1 | 4.45 | 88.7 | 93.3 | 4.83 | 94.62 | 1.34

Now those with a lower DC50 [1], led by results:

DC50 [1] [nM] | Dmax [1] [%] | DC50 [2] [nM] | Dmax [2] [%] | Imax (%) [3] [%] | IC50 [3] [nM] | Imax (%) [4] [%] | IC50 [4] [nM] | SMILES
0.67 | 91.6 | 1.01 | 70.7 | 91.5 | 1.21 | 99.76 | 3.02 | COC[C@H]1CN(c2ccc3c(c2)N2C[C@@H]4CC[C@H](COc5c(cnn5C)-c5cc(cc(C)n5)C(=O)/N=C/2N3)C4)CCN1C1CN(C2CCN(c3cc(F)c([C@H]4CCC(=O)NC4=O)c(F)c3)CC2)C1 [Example 208, (R)-3-(4-(4-(3-((R)-4-((7^1R,7^3S,E)-1^1,2^6-dimethyl-3-oxo-5^2,5^3-dihydro-1^1H,5^1H-9-oxa-4-aza-5(2,1)-benzo[d]imidazola-2(2,4)-pyridina-1(4,5)-pyrazola-7(1,3)-cyclopentanacyclononaphane-5^6-yl)-2-(methoxymethyl)piperazin-1-yl)azetidin-1-yl)piperidin-1-yl)-2,6-difluorophenyl)piperidine-2,6-dione]
2.62 | 86.5 | 2.81 | 91.6 | 100.12 | 8.76 | 102.95 | 2.5 | COC[C@@H]1CN(c2cc3c(cc2F)N/C2=N\C(=O)c4cc(C)nc(c4)-c4c(C)nn(C)c4OC[C@H]4CC[C@H](C4)CN23)CCN1C1CCN(c2cc(F)c([C@H]3CCC(=O)NC3=O)c(F)c2)CC1 [Example 169, (R)-3-(2,6-difluoro-4-(4-((S)-4-((7^1R,7^3S,E)-5^5-fluoro-1^1,1^3,2^6-trimethyl-3-oxo-5^2,5^3-dihydro-1^1H,5^1H-9-oxa-4-aza-5(2,1)-benzo[d]imidazola-2(2,4)-pyridina-1(4,5)-pyrazola-7(1,3)-cyclopentanacyclononaphane-5^6-yl)-2-(methoxymethyl)piperazin-1-yl)piperidin-1-yl)phenyl)piperidine-2,6-dione]
1.07 | 83.3 | 1.87 | 70 | 101.9 | 3.2 | 101.2 | 0.7 | COC[C@H]1CN(c2ccc3c(c2)N2C[C@@H]4CC[C@H](COc5c(cnn5C)-c5cc(cc(C)n5)C(=O)/N=C/2N3)C4)CCN1C1CCN(c2cc(F)c([C@H]3CCC(=O)NC3=O)c(F)c2)CC1 [Example 64, (R)-3-(4-(4-((R)-4-((7^1R,7^3S,E)-1^1,2^6-dimethyl-3-oxo-5^2,5^3-dihydro-1^1H,5^1H-9-oxa-4-aza-5(2,1)-benzo[d]imidazola-2(2,4)-pyridina-1(4,5)-pyrazola-7(1,3)-cyclopentanacyclononaphane-5^6-yl)-2-(methoxymethyl)piperazin-1-yl)piperidin-1-yl)-2,6-difluorophenyl)piperidine-2,6-dione]
2.86 | 64.1 | 8.71 | 70.8 | 96.2 | 13.8 | 100.3 | 1.5 | COC[C@@H]1CN(c2cc3c(cc2F)N/C2=N\C(=O)c4cc(C)nc(c4)-c4cnn(C)c4OC[C@H]4CCC(C4)CN23)CCN1C1CCN(c2cc(F)c([C@H]3CCC(=O)NC3=O)c(F)c2)CC1 [Example 87, (R)-3-(2,6-difluoro-4-(4-((S)-4-((7^1R,7^3S,E)-5^5-fluoro-1^1,2^6-dimethyl-3-oxo-5^2,5^3-dihydro-1^1H,5^1H-9-oxa-4-aza-5(2,1)-benzo[d]imidazola-2(2,4)-pyridina-1(4,5)-pyrazola-7(1,3)-cyclopentanacyclononaphane-5^6-yl)-2-(methoxymethyl)piperazin-1-yl)piperidin-1-yl)phenyl)piperidine-2,6-dione]
